The record followed here is article PMC7215373, “Design, Synthesis, and Anticancer Evaluation of Novel Indole Derivatives of Ursolic Acid as Potential Topoisomerase II Inhibitors” (International Journal of Molecular Sciences, 2020).

The test system of assay [1] is SMMC-7721 cells. The assay can be described thus: Annexin V-FITC/PI staining apoptosis assay by flow cytometry. The following applies: 48 h, control 4.41%. It is filed as cell-based, human. On the procedure:
To further investigate the role of apoptosis in the antitumor activity of compound 5f, SMMC-7721 cells were treated with different concentrations of compound 5f (0, 0.3, 0.6, and 1.2 μM) for 48 h. Then the treated cells were stained with Annexin V-FITC/PI followed by flow cytometry analysis.
The extent of apoptosis was quantitatively measured using Annexin V-FITC/PI dual staining assay. SMMC-7721 cells were seeded into a six-well plate at 5 × 10^5 cells per well in 10% fetal calf serum (FBS)-DMEM into six-well plates and treated with different concentrations of the indicated compound 5f for 48 h. The cells were detached with 0.25% trypsin, washed with ice-cold PBS for twice and then resuspended in 1 × Binding buffer (0.1 M Hepes/NaOH (pH 7.4), 1.4 M NaCl, 25 mM CaCl2). The cells were stained with 5 μL of Annexin V-FITC and 5 μL of PI ([…]) to each tube. The cells were gently vortexed and incubated in the dark at room temperature for 15 min and then kept at 4 °C. The samples were analyzed by a flow cytometer (Becton-Dickinson FACSCalibur, Franklin Lakes, NJ, USA), and data were analyzed using the FlowJo software (Becton-Dickinson Biosciences, Franklin Lakes, NJ, USA).
On the technique in general: Flow cytometry measures light scatter and fluorescence of single cells or particles in a stream.

The test system of assay [2] is SMMC-7721 cells. The assay can be described thus: MTT cytotoxicity assay, SMMC-7721. The following applies: 48 h exposure. The format is cell-based, human. In a few lines:
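Cells in DMEM with 10% FBS were seeded and allowed to attach for 24 h. They were then exposed to compound dilutions for 48 h at 37 °C, 5% CO2. Viability was measured by MTT (4 h), with formazan dissolved in DMSO and read at 570 nm.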

The next assay deals with T1, DNA topoisomerase I (Bos taurus, UniProt F1MN93).
T1 construct: purchased TaKaRa, Kyoto, Japan
T1 sequence (F1MN93 1-767): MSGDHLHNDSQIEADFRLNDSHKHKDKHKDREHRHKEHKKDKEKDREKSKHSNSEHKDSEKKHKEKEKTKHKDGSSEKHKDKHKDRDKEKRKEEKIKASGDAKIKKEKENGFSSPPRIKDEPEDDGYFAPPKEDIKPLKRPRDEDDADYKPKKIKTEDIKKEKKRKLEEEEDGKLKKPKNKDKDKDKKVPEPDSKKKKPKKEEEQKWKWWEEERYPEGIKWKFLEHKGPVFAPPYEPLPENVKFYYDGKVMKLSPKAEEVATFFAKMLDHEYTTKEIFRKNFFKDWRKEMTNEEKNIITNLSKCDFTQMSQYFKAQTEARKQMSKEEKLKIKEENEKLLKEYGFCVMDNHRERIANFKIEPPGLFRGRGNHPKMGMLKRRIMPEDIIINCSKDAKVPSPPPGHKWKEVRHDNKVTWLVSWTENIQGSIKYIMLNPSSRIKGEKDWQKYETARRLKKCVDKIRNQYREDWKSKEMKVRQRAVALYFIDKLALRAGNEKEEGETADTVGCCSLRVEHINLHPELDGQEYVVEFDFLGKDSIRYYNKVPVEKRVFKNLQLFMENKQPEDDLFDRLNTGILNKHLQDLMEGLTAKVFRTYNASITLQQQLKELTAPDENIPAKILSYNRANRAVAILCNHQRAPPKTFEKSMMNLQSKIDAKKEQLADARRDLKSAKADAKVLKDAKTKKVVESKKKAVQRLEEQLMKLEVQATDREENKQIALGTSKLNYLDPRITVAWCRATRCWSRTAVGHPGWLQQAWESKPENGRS
Kind of assay: Topoisomerase I relaxation assay (supercoiled pBR322). It is filed as biochemical. Particulars: 100 μM compound; read-out: Topo I Inhibition (%) 100 μM. In a few lines:
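Relaxation of supercoiled pBR322 by topoisomerase I, 30 min at 37 °C; stopped with SDS dye. Products resolved on 1% agarose in 1× TAE for 1 h, ethidium bromide-stained, with relaxed vs supercoiled DNA visualized under UV.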

For the compound `Cc1ccc2[nH]c3c(c2c1)C[C@@]1(C)C(CC[C@]2(C)C1CC=C1C4[C@@H](C)[C@H](C)CC[C@]4(C(=O)NCCCN4CCN(C)CC4)CC[C@]12C)C3(C)C` (stereo partly drawn) [5f, N-(3-(4-Methylpiperazin-1-yl)propyl)-5′-methyl-1′H-ursa-2,12-dieno[3,2-b]indol-28-carboxamide], the “percentage of early and late apoptotic cells” value with SMMC-7721 cells [1] (0.3 μM) amounted to 9.13%; with SMMC-7721 cells [1] (0.6 μM), 21.36%; with SMMC-7721 cells [1] (1.2 μM), 30.33%. The IC50 in the assay on SMMC-7721 cells [2] was 0.56 ± 0.08 µM; with SMMC-7721 cells [2] (Homo sapiens, SMMC-7721, 48 h), around 1 µM. Further, the inhibition at 100 µM on DNA topoisomerase I is 0%.

One may read the IC50 as the point on the concentration scale where inhibition reaches its midpoint. A lower IC50 goes with greater potency. A word on the inhibition: it is the drop in the measured response relative to a control, in per cent.
